Read-outs that look alike come from different tables or passages of the source.
How the values were obtained:
[1] = Impact of packaging on stability, HPβCD 32.5% w/w, 5 mM pH 7.5 phosphate buffer, 40° C./75% RH; format: physicochemical; details: for Assay: in %
Description: To study the potential impact of the packaging material on the stability of the ticagrelor-cyclodextrin inclusion complex a composition with 32.5% w/w HPβCD was prepared with procedures and precaution's similar to previous trials, samples were stored in transparent clear glass vials and amber colored glass vials at a temperature of 40° C./75% RH.

[2] = Dilution of a concentrated ticagrelor vial; format: physicochemical
Source text: However, this was not possible with a 0.9 w/v % NaCl solution as diluent for the concentrated ticagrelor solution.

[3] = for Appearance, undiluted: 5 mg/ml; for Appearance in 5% dextrose / Appearance in NaCl 0.9%: diluted to 0.1 mg/ml
[4] = phosphate buffered solution pH 7.4, normal laboratory light and temperature; cited from earlier work
[5] = Amber colour USP Type I Glass vials, 1 M
[6] = Amber colour USP Type I Glass vials, 2 M
[7] = Amber colour USP Type I Glass vials, 3 M
[8] = Amber colour USP Type I Glass vials, T0
[9] = Clear USP Type I Glass vials, 1 M
[10] = Clear USP Type I Glass vials, 2 M
[11] = Clear USP Type I Glass vials, 3 M
[12] = Clear USP Type I Glass vials, T0

**Q.** For `CCCSc1nc(N[C@@H]2C[C@H]2c2ccc(F)c(F)c2)c2nnn([C@@H]3C[C@H](OCCO)[C@@H](O)[C@H]3O)c2n1` [Ticagrelor, (1S,2S,3R,5S)-3-{7-[(1R,2S)-2-(3,4-difluorophenyl)cyclopropylamino]5-(propylthio)-3H-(1,2,3)triazolo (4,5-D)pyrimidin-3-yl}-5-(2 hydroxyethoxy)cyclopentane-1,2-diol], which Acetal impurity [1, 5] is on record?
**A.** 0.05%

**Q.** And the Amine impurity [1, 5]?
**A.** 0.04%

**Q.** And the Description [1, 5]?
**A.** clear

**Q.** What about the Regiomer [1, 5] of the same compound?
**A.** 0.01%

**Q.** What about the “Sum Impurities >0.05” value [1, 5] of the same compound?
**A.** 0.05%

**Q.** And the Total impurity [1, 5]?
**A.** 0.22%

**Q.** And the Triol impurity [1, 5]?
**A.** 0.02%

**Q.** And the pH [1, 5]?
**A.** 7.70

**Q.** And the Assay [1, 5]?
**A.** 100.24

**Q.** What about the Acetal impurity [1, 6] of the same compound?
**A.** 0.04%

**Q.** And the Amine impurity [1, 6]?
**A.** 0.04%

**Q.** And the Description [1, 6]?
**A.** clear

**Q.** What about the Regiomer [1, 6] of the same compound?
**A.** 0.02%

**Q.** What about the “Sum Impurities >0.05” value [1, 6] of the same compound?
**A.** 0.00%

**Q.** What about the Total impurity [1, 6] of the same compound?
**A.** 0.28%

**Q.** And the Triol impurity [1, 6]?
**A.** 0.04%

**Q.** What about the pH [1, 6] of the same compound?
**A.** 7.69

**Q.** What about the Assay [1, 6] of the same compound?
**A.** 99.89

**Q.** And the Acetal impurity [1, 7]?
**A.** 0.05%

**Q.** What about the Amine impurity [1, 7] of the same compound?
**A.** 0.06%

**Q.** And the Description [1, 7]?
**A.** clear

**Q.** And the Regiomer [1, 7]?
**A.** 0.04%

**Q.** And the “Sum Impurities >0.05” value [1, 7]?
**A.** 0.16%

**Q.** And the Total impurity [1, 7]?
**A.** 0.33%

**Q.** And the Triol impurity [1, 7]?
**A.** 0.05%

**Q.** What about the pH [1, 7] of the same compound?
**A.** 7.66

**Q.** And the Assay [1, 7]?
**A.** 98.93

**Q.** And the Acetal impurity [1, 8]?
**A.** 0.05%

**Q.** And the Amine impurity [1, 8]?
**A.** 0.04%

**Q.** And the Description [1, 8]?
**A.** clear

**Q.** And the Regiomer [1, 8]?
**A.** 0.00%

**Q.** What about the “Sum Impurities >0.05” value [1, 8] of the same compound?
**A.** 0.18%

**Q.** And the Total impurity [1, 8]?
**A.** 0.40%

**Q.** And the Triol impurity [1, 8]?
**A.** 0.04%

**Q.** And the pH [1, 8]?
**A.** 7.66

**Q.** And the Assay [1, 8]?
**A.** 98.34

**Q.** What about the Acetal impurity [1, 9] of the same compound?
**A.** 0.04%

**Q.** What about the Amine impurity [1, 9] of the same compound?
**A.** 0.04%

**Q.** And the Description [1, 9]?
**A.** clear

**Q.** And the Regiomer [1, 9]?
**A.** 0.01%

**Q.** What about the “Sum Impurities >0.05” value [1, 9] of the same compound?
**A.** 0.00%

**Q.** And the Total impurity [1, 9]?
**A.** 0.22%

**Q.** And the Triol impurity [1, 9]?
**A.** 0.03%

**Q.** And the pH [1, 9]?
**A.** 7.65

**Q.** What about the Assay [1, 9] of the same compound?
**A.** 101.71

**Q.** What about the Acetal impurity [1, 10] of the same compound?
**A.** 0.04%

**Q.** And the Amine impurity [1, 10]?
**A.** 0.04%

**Q.** What about the Description [1, 10] of the same compound?
**A.** clear

**Q.** What about the Regiomer [1, 10] of the same compound?
**A.** 0.02%

**Q.** And the “Sum Impurities >0.05” value [1, 10]?
**A.** 0.05%

**Q.** And the Total impurity [1, 10]?
**A.** 0.28%

**Q.** And the Triol impurity [1, 10]?
**A.** 0.05%

**Q.** And the pH [1, 10]?
**A.** 7.63

**Q.** What about the Assay [1, 10] of the same compound?
**A.** 99.69

**Q.** What about the Acetal impurity [1, 11] of the same compound?
**A.** 0.05%

**Q.** And the Amine impurity [1, 11]?
**A.** 0.06%

**Q.** And the Description [1, 11]?
**A.** clear

**Q.** What about the Regiomer [1, 11] of the same compound?
**A.** 0.04%

**Q.** What about the “Sum Impurities >0.05” value [1, 11] of the same compound?
**A.** 0.16%

**Q.** What about the Total impurity [1, 11] of the same compound?
**A.** 0.33%

**Q.** And the Triol impurity [1, 11]?
**A.** 0.05%

**Q.** What about the pH [1, 11] of the same compound?
**A.** 7.58

**Q.** And the Assay [1, 11]?
**A.** 98.25

**Q.** And the Acetal impurity [1, 12]?
**A.** 0.05%

**Q.** And the Amine impurity [1, 12]?
**A.** 0.04%

**Q.** What about the Description [1, 12] of the same compound?
**A.** clear

**Q.** What about the Regiomer [1, 12] of the same compound?
**A.** 0.00%

**Q.** What about the “Sum Impurities >0.05” value [1, 12] of the same compound?
**A.** 0.22%

**Q.** And the Total impurity [1, 12]?
**A.** 0.40%

**Q.** And the Triol impurity [1, 12]?
**A.** 0.05%

**Q.** What about the pH [1, 12] of the same compound?
**A.** 7.65

**Q.** And the Assay [1, 12]?
**A.** 98.34

**Q.** And the “Clear solution on dilution” value ([2]; 0.9 w/v % NaCl solution as diluent)?
**A.** not possible

**Q.** What about the Appearance after dilution ([2]; 1 vial of 8 ml, 65 mg ticagrelor, about 3 g HPβCD, diluted with 25 ml 5 w/v % dextrose) of the same compound?
**A.** clear solution

**Q.** What about the “Appearance, undiluted” value ([3]; HPβCD 22.5% w/w) of the same compound?
**A.** Turbid; clear after heating to 40 °C

**Q.** And the “Appearance, undiluted” value ([3]; HPβCD 25.0% w/w)?
**A.** Turbid; clear after heating to 40 °C

**Q.** And the “Appearance, undiluted” value ([3]; HPβCD 27.5% w/w)?
**A.** Turbid; clear after heating to 40 °C

**Q.** What about the “Appearance, undiluted” value ([3]; HPβCD 30.0% w/w) of the same compound?
**A.** Clear solution

**Q.** And the “Appearance, undiluted” value ([3]; HPβCD 32.5% w/w)?
**A.** Clear solution

**Q.** And the “Ticagrelor concentration possible to dissolve” value ([3]; HPβCD 20-40% w/w, without the use of heat)?
**A.** 5 to 15 mg/mL

**Q.** What about the “Appearance in 5% dextrose” value ([3]; HPβCD 22.5% w/w) of the same compound?
**A.** Clear solution

**Q.** And the “Appearance in NaCl 0.9%” value ([3]; HPβCD 22.5% w/w)?
**A.** Turbid

**Q.** What about the “Appearance in 5% dextrose” value ([3]; HPβCD 25.0% w/w) of the same compound?
**A.** Clear solution

**Q.** What about the “Appearance in NaCl 0.9%” value ([3]; HPβCD 25.0% w/w) of the same compound?
**A.** Turbid

**Q.** What about the “Appearance in 5% dextrose” value ([3]; HPβCD 27.5% w/w) of the same compound?
**A.** Clear solution

**Q.** And the “Appearance in NaCl 0.9%” value ([3]; HPβCD 27.5% w/w)?
**A.** Turbid

**Q.** What about the “Appearance in 5% dextrose” value ([3]; HPβCD 30.0% w/w) of the same compound?
**A.** Clear solution

**Q.** And the “Appearance in NaCl 0.9%” value ([3]; HPβCD 30.0% w/w)?
**A.** Turbid

**Q.** And the “Appearance in 5% dextrose” value ([3]; HPβCD 32.5% w/w)?
**A.** Clear solution

**Q.** And the “Appearance in NaCl 0.9%” value ([3]; HPβCD 32.5% w/w)?
**A.** Clear solution

**Q.** And the “Stability of undiluted concentrate in the refrigerator” value ([3]; HPβCD concentration as low as 22.5% w/w)?
**A.** remained stable

**Q.** And the “HPβCD required for a clear, storage stable ticagrelor solution” value ([3]; concentration relevant for injection or intravenous administration)?
**A.** At least 15 % w/w

**Q.** What about the “Ticagrelor concentration on storage” value [4] of the same compound?
**A.** declined after 1 month
